Experimental data from patent publication US20240009232A1, “COMBINATION THERAPY COMPRISING HER-2-DC1 VACCINE AND A PROBIOTIC” (H. LEE MOFFITT CANCER CENTER AND RESEARCH INSTITUTE, INC., priority 2021, published 2024).

System: TUBO tumors
Assay: Mono- and combination therapies in HER2+ TUBO bearing mice (FIG. 8, FIG. 9)
Format: in vivo, Balb/C mice
Conditions: monotherapy
Protocol: Balb/C mice or C57BL/6 mice received tumor cells on day 0 followed by different treatments; two doses of Taxol given intraperitoneally (i.p.) once a week; CDK inhibitor, abemaciclib was administered by oral gavage till end point; Anti-PD-L1 was given i.p. twice a week until end point; DC1 vaccine was given intratumorally.
Balb/C mice bearing TUBO tumors were treated with intratumoral HER2-DC1 vaccine alone or anti-HER2 antibody or a combination of both.
TUBO bearing mice were treated with intratumoral HER2-DC1 vaccine alone or Abemaciclib or a combination of both.
Here, we can investigate the role of gut microbiome in response to combination therapy. […] Balb/C mice bearing TUBO tumors were treated with intratumoral HER-DC1 alone or anti-HER2 antibody (7.16.4+7.9.5) alone or combination of both. While CDK inhibitor, abemaciclib was given daily by oral gavage alone or in combination with intratumoral HER2-DC1.

With `CC(=O)O[C@H]1C(=O)[C@@]2(C)[C@H]([C@H](OC(=O)c3ccccc3)[C@]3(O)C[C@H](OC(=O)[C@H](O)[C@@H](NC(=O)c4ccccc4)c4ccccc4)C(C)=C1C3(C)C)[C@]1(OC(C)=O)CO[C@@H]1C[C@@H]2O` [taxol, paclitaxel] the tumor growth was “modestly delayed tumor growth”.
